From PubChem BioAssay (NCI)
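96-well plates; 48 h exposure; 5 concentrations. Endpoints by linear interpolation between flanking doses. Not reached: highest tested concentration assigned. GI50 = concentration required for 50% inhibition of growth. TGI is the concentration that stops growth completely.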

What was measured:
Test in all cases: NCI-60 cell line screen, 48 h
[1] = tested on: CCRF-CEM leukemia
[2] = tested on: HL-60(TB) leukemia
[3] = tested on: MCF7 breast
[4] = tested on: HT29 colon
[5] = tested on: SK-MEL-2 melanoma
[6] = tested on: HS 578T breast
[7] = tested on: M14 melanoma
[8] = tested on: SN12C renal
[9] = tested on: OVCAR-8 ovarian
[10] = tested on: ACHN renal
[11] = tested on: MDA-MB-231 breast
[12] = tested on: SNB-75 CNS
[13] = tested on: 786-0 renal
[14] = tested on: HCT-116 colon
[15] = tested on: COLO 205 colon
[16] = tested on: A498 renal
[17] = tested on: HOP-62 NSCLC
[18] = tested on: NCI-H460 lung
[19] = tested on: NCI-H522 lung
[20] = tested on: SW-620 colon
[21] = tested on: DU-145 prostate
[22] = tested on: SK-MEL-28 melanoma
[23] = tested on: SNB-19 CNS
[24] = tested on: HOP-92 NSCLC
[25] = tested on: TK-10 renal
[26] = tested on: UACC-257 melanoma
[27] = tested on: RXF 393 renal
[28] = tested on: SF-539 CNS
[29] = tested on: LOX IMVI melanoma
[30] = tested on: A549 NSCLC
[31] = tested on: HCC-2998 colon
[32] = tested on: RPMI-8226 leukemia
[33] = tested on: IGROV1 ovarian
[34] = tested on: HCT-15 colon
[35] = tested on: KM12 colon
[36] = tested on: OVCAR-4 ovarian
[37] = tested on: SF-295 CNS
[38] = tested on: OVCAR-3 ovarian
[39] = tested on: SR leukemia
[40] = tested on: MDA-MB-435
[41] = tested on: OVCAR-5 ovarian
[42] = tested on: MALME-3M melanoma
[43] = tested on: MOLT-4 leukemia
[44] = tested on: K-562 leukemia
[45] = tested on: SK-OV-3 ovarian
[46] = tested on: SF-268 CNS
[47] = tested on: EKVX NSCLC
[48] = tested on: UACC-62 melanoma
[49] = tested on: U251 CNS
[50] = tested on: NCI-H226 lung
[51] = tested on: T-47D breast
[52] = tested on: BT-549 breast
[53] = tested on: SK-MEL-5 melanoma
[54] = tested on: PC-3 prostate
[55] = tested on: NCI-H23 lung
[56] = tested on: UO-31 renal
[57] = tested on: NCI/ADR-RES ovarian

COc1ccc2cc(Cn3cc[n+](Cc4ccc5ccccc5c4)c3)ccc2c1
GI50 [1]: 2.66 µM
TGI [1]: 10.4 µM
GI50 [2]: 1.34 µM
TGI [2]: 3.89 µM
GI50 [3]: 2.57 µM
TGI [3]: 9.88 µM
GI50 [4]: 1.76 µM
TGI [4]: 8.23 µM
GI50 [5]: 1.91 µM
TGI [5]: 4.65 µM
GI50 [6]: 2.32 µM
TGI [6]: 9.92 µM
GI50 [7]: 1.77 µM
TGI [7]: 4.21 µM
GI50 [8]: 2.53 µM
TGI [8]: 8.97 µM
GI50 [9]: 3.26 µM
TGI [9]: 13.1 µM
GI50 [10]: 14.3 µM
TGI [10]: 30.4 µM
GI50 [11]: 1.55 µM
TGI [11]: 3.81 µM
GI50 [12]: 1.39 µM
TGI [12]: 4.19 µM
GI50 [13]: 4.72 µM
TGI [13]: 19.6 µM
GI50 [14]: 2.23 µM
TGI [14]: 7.43 µM
GI50 [15]: 1.44 µM
TGI [15]: 3.28 µM
GI50 [16]: 1.03 µM
TGI [16]: 9.13 µM
GI50 [17]: 4.23 µM
TGI [17]: 20.9 µM
GI50 [18]: 3.24 µM
TGI [18]: 12.7 µM
GI50 [19]: 1.53 µM
TGI [19]: 4.68 µM
GI50 [20]: 3.12 µM
TGI [20]: 14.1 µM
GI50 [21]: 4.49 µM
TGI [21]: 16.9 µM
GI50 [22]: 2 µM
TGI [22]: 5.05 µM
GI50 [23]: 1.93 µM
TGI [23]: 6.65 µM
GI50 [24]: 0.672 µM
TGI [24]: 3.33 µM
GI50 [25]: 3.72 µM
TGI [25]: 15 µM
GI50 [26]: 1.95 µM
TGI [26]: 5.09 µM
GI50 [27]: 1.75 µM
TGI [27]: 4.59 µM
GI50 [28]: 2.37 µM
TGI [28]: 7.81 µM
GI50 [29]: 1.5 µM
TGI [29]: 2.86 µM
GI50 [30]: 8.16 µM
TGI [30]: 23.7 µM
GI50 [31]: 2.11 µM
TGI [31]: 5.28 µM
GI50 [32]: 1.33 µM
TGI [32]: 3.65 µM
GI50 [33]: 1.75 µM
TGI [33]: 4.87 µM
GI50 [34]: 15.8 µM
TGI [34]: 32.4 µM
GI50 [35]: 1.72 µM
TGI [35]: 3.43 µM
GI50 [36]: 2.27 µM
TGI [36]: 8.06 µM
GI50 [37]: 4.95 µM
TGI [37]: 21.9 µM
GI50 [38]: 1.62 µM
TGI [38]: 4.01 µM
GI50 [39]: 1.68 µM
TGI [39]: 4.27 µM
GI50 [40]: 1.79 µM
TGI [40]: 4.12 µM
GI50 [41]: 2.7 µM
TGI [41]: 12.5 µM
GI50 [42]: 1.53 µM
TGI [42]: 4.03 µM
GI50 [43]: 2.31 µM
TGI [43]: 7.62 µM
GI50 [44]: 3.51 µM
TGI [44]: 16.3 µM
GI50 [45]: 3.19 µM
TGI [45]: 12.6 µM
GI50 [46]: 2.53 µM
TGI [46]: 11.8 µM
GI50 [47]: 3.71 µM
TGI [47]: 15.5 µM
GI50 [48]: 1.49 µM
TGI [48]: 3.25 µM
GI50 [49]: 2.79 µM
TGI [49]: 12.3 µM
GI50 [50]: 2.97 µM
TGI [50]: 16.4 µM
GI50 [51]: 1.87 µM
TGI [51]: 7.56 µM
GI50 [52]: 1.96 µM
TGI [52]: 4.17 µM
GI50 [53]: 1.33 µM
TGI [53]: 2.62 µM
GI50 [54]: 2.13 µM
TGI [54]: 9.17 µM
GI50 [55]: 2.37 µM
TGI [55]: 12 µM
GI50 [56]: 12.7 µM
TGI [56]: 32.1 µM
GI50 [57]: > 100 µM
TGI [57]: > 100 µM
